Results on 32 compounds are retold here after US10392391B2 (Vertex Pharmaceuticals Incorporated, priority 2012, dated 2019).

Like-named read-outs stand apart in the source and are kept apart here.

The test concerns the target ATR kinase (full-length ATR) (Homo sapiens (Human), UniProt Q13535). Kind of test: ATR inhibition assay (radioactive-phosphate incorporation). The class given is biochemical. In outline: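 Ki(app) was fitted by non-linear regression to background-corrected initial rates. Full-length ATR (5 nM) phosphorylated 800 μM peptide using 10 μM [γ-33P]ATP at 25° C in Tris/HCl pH 7.5 buffer with MgCl2, DTT and 7% DMSO. After 10-minute compound pre-incubation and 24-hour reaction, phosphocellulose filters were scintillation counted.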

The mark [1] stands for this setting: Ki(app), 5 nM full-length ATR, 10 μM ATP, 25° C.

ATR kinase (full-length ATR), sequence (Q13535 whole entry): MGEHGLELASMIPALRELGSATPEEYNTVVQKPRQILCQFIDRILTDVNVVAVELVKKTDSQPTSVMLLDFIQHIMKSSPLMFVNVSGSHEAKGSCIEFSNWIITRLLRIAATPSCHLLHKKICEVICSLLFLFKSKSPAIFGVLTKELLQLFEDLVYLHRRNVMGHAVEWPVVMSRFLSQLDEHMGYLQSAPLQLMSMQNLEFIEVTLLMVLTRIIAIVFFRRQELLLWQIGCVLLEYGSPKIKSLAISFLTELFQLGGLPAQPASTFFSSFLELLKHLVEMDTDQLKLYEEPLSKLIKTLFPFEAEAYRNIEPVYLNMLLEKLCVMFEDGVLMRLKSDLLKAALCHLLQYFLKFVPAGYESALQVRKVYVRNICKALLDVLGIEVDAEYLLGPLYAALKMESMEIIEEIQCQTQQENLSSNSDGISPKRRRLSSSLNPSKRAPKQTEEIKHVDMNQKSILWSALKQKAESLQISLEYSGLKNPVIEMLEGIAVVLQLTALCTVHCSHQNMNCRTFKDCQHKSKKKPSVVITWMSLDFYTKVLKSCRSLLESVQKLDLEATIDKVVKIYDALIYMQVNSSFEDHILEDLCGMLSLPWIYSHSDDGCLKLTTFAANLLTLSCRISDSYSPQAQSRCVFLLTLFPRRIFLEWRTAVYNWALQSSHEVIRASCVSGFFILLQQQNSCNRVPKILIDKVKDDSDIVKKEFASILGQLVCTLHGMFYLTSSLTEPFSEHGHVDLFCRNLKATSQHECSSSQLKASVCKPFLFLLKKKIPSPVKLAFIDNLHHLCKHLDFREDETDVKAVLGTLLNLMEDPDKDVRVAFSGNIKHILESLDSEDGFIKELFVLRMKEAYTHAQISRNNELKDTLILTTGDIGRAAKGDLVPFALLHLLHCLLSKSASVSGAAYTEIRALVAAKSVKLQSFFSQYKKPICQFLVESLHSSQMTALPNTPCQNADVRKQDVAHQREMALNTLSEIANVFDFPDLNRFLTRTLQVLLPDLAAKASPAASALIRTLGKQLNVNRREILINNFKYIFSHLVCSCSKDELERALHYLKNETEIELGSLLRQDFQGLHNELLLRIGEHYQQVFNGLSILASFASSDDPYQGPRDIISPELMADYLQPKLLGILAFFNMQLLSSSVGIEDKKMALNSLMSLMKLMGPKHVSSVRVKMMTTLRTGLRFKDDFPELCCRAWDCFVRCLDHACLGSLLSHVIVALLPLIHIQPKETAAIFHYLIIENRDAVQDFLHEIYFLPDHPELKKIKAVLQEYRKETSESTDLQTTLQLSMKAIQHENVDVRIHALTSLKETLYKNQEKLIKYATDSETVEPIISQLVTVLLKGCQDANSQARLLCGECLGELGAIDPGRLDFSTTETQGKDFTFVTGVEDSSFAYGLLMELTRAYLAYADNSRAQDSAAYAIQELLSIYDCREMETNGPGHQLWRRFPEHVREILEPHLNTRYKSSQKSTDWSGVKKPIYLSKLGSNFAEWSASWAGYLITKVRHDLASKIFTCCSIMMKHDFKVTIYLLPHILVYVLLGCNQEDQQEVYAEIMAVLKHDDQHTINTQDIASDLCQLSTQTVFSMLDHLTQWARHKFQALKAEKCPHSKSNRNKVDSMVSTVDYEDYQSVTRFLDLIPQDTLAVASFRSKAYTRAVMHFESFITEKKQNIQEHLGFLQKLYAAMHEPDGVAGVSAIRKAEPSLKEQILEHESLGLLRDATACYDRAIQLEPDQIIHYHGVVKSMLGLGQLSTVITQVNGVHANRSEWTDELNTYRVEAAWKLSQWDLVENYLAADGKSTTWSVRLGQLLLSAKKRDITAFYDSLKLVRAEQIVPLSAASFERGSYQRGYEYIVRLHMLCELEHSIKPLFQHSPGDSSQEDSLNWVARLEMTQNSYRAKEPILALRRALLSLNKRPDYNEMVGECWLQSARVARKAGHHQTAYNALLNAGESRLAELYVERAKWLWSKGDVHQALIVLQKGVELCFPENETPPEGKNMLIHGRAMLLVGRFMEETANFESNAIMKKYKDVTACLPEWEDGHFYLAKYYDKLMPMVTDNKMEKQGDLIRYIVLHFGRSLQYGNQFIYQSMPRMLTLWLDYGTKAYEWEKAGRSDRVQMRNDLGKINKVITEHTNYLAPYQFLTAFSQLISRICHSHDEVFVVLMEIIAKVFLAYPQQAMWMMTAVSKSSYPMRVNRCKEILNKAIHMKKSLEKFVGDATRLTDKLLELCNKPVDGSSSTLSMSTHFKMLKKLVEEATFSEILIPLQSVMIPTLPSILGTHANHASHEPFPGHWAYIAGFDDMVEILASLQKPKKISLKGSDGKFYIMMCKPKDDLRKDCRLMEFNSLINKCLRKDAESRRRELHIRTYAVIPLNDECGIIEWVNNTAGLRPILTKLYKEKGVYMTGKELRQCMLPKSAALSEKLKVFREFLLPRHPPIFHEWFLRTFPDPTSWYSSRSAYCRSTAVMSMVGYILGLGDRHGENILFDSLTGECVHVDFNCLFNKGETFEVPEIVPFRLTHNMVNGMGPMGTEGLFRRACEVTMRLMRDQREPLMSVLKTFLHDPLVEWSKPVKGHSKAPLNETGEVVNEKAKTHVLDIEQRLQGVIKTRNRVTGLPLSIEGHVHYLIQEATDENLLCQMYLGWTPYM

As for `Nc1nn2cc(F)cnc2c1C(=O)Nc1cncc(F)c1N1CCN2C(=O)CCC[C@@H]2C1` [I-N-280, (R)-2-amino-6-fluoro-N-(5-fluoro-4-(6-oxohexahydro-1H-pyrido[1,2-a]pyrazin-2(6H)-yl)pyridin-3-yl)pyrazolo[1,5-a]pyrimidine-3-carboxamide], the Ki under setting [1] was in the range of 10 to 1000 nM.
In the case of `Nc1nn2cc(Cl)cnc2c1C(=O)Nc1cnccc1Oc1cccnc1` [I-O-70, 2-amino-6-chloro-N-(4-(pyridin-3-yloxy)pyridin-3-yl)pyrazolo[1,5-a]pyrimidine-3-carboxamide], under setting [1], the Ki lay within 10 to 1000 nM.
Still for that read-out and setting: to `Nc1nn2cc(F)cnc2c1C(=O)Nc1cnccc1N1CCC2(CCNC2)CC1` [I-N-255, N-(4-(2,8-diazaspiro[4.5]decan-8-yl)pyridin-3-yl)-2-amino-6-fluoropyrazolo[1,5-a]pyrimidine-3-carboxamide] belongs 10 to 1000 nM; to `CC(C#N)c1cnc2c(C(=O)Nc3cnccc3N3CCN(C4COC4)CC3)c(N)nn2c1` (centres unmarked) [I-N-143, 2-amino-6-(1-cyanoethyl)-N-(4-(4-(oxetan-3-yl)piperazin-1-yl)pyridin-3-yl)pyrazolo[1,5-a]pyrimidine-3-carboxamide], 10 to 1000 nM; to `CN1C(=O)CCC12CCN(c1ccncc1NC(=O)c1c(N)nn3cc(F)cnc13)CC2` [I-N-235, 2-amino-6-fluoro-N-(4-(1-methyl-2-oxo-1,8-diazaspiro[4.5]decan-8-yl)pyridin-3-yl)pyrazolo[1,5-a]pyrimidine-3-carboxamide], 10 to 1000 nM.
Regarding `N#CCc1cnc2c(C(=O)Nc3cnccc3N3CCNCC3)c(N)nn2c1` [I-N-89, 2-amino-6-(cyanomethyl)-N-(4-(piperazin-1-yl)pyridin-3-yl)pyrazolo[1,5-a]pyrimidine-3-carboxamide], the Ki under setting [1] is 10 to 1000 nM.
Take `Nc1nn2cc(F)cnc2c1C(=O)Nc1cnccc1N1CCN2C(=O)OCC2C1` (centres unmarked) [I-N-238, 2-amino-6-fluoro-N-(4-(3-oxotetrahydro-1H-oxazolo[3,4-a]pyrazin-7(3H)-yl)pyridin-3-yl)pyrazolo[1,5-a]pyrimidine-3-carboxamide]: the Ki under setting [1] was in the range of 10 to 1000 nM.
With `Nc1nn2cc(Cl)cnc2c1C(=O)Nc1cnccc1N1CCN2CCC[C@@H]2C1` [I-N-65, (R)-2-amino-6-chloro-N-(4-(hexahydropyrrolo[1,2-a]pyrazin-2(1H)-yl)pyridin-3-yl)pyrazolo[1,5-a]pyrimidine-3-carboxamide], the Ki under setting [1] lay within 10 to 1000 nM.
Consider `CN1CCN(c2c(Cl)cncc2NC(=O)c2c(N)nn3cc(F)cnc23)CC1` [I-N-85, 2-amino-N-(5-chloro-4-(4-methylpiperazin-1-yl)pyridin-3-yl)-6-fluoropyrazolo[1,5-a]pyrimidine-3-carboxamide], for which the Ki under setting [1] lay in the range of 10 to 1000 nM.
Same read-out and setting: then `Cc1nnc(C2CCN(c3ccncc3NC(=O)c3c(N)nn4cc(F)cnc34)CC2)o1` [I-N-265, 2-amino-6-fluoro-N-(4-(4-(5-methyl-1,3,4-oxadiazol-2-yl)piperidin-1-yl)pyridin-3-yl)pyrazolo[1,5-a]pyrimidine-3-carboxamide], with 10 to 1000 nM; and `Nc1nn2cc(F)cnc2c1C(=O)Nc1cncc(F)c1N1CCC(c2nccs2)CC1` [I-N-184, 2-amino-6-fluoro-N-(5-fluoro-4-(4-(thiazol-2-yl)piperidin-1-yl)pyridin-3-yl)pyrazolo[1,5-a]pyrimidine-3-carboxamide], with 10 to 1000 nM.
For the compound `CN1CCC(S(=O)(=O)N2CCN(c3c(F)cncc3NC(=O)c3c(N)nn4cc(F)cnc34)CC2)CC1` [I-N-175, 2-amino-6-fluoro-N-(5-fluoro-4-(4-((1-methylpiperidin-4-yl)sulfonyl)piperazin-1-yl)pyridin-3-yl)pyrazolo[1,5-a]pyrimidine-3-carboxamide], under setting [1], the Ki fell in the range of 10 to 1000 nM.
Consider `Nc1nn2cc(F)cnc2c1C(=O)Nc1cnccc1OC1CN2CCC1CC2` (racemic) [I-O-6, (R,S)-2-amino-6-fluoro-N-(4-(quinuclidin-3-yloxy)pyridin-3-yl)pyrazolo[1,5-a]pyrimidine-3-carboxamide], for which, under setting [1], the Ki was in the range of 10 to 1000 nM.
On the same count and under the same terms, then `CN1CCN2CCN(c3c(F)cncc3NC(=O)c3c(N)nn4cc(F)cnc34)CC2C1=O` (centres unmarked) [I-N-240, 2-amino-6-fluoro-N-(5-fluoro-4-(8-methyl-9-oxohexahydro-1H-pyrazino[1,2-a]pyrazin-2(6H)-yl)pyridin-3-yl)pyrazolo[1,5-a]pyrimidine-3-carboxamide], with 10 to 1000 nM; and `Nc1nn2cc(F)cnc2c1C(=O)Nc1cnccc1N1CCN2CCC1CC2` [I-N-18, N-(4-(1,4-diazabicyclo[3.2.2]nonan-4-yl)pyridin-3-yl)-2-amino-6-fluoropyrazolo[1,5-a]pyrimidine-3-carboxamide], with 10 to 1000 nM; and `COC(=O)[C@H]1CC[C@@H](Oc2ccncc2NC(=O)c2c(N)nn3cc(F)cnc23)CC1` [I-O-18, (1s,4s)-methyl 4-((3-(2-amino-6-fluoropyrazolo[1,5-a]pyrimidine-3-carboxamido)pyridin-4-yl)oxy)cyclohexanecarboxylate], with 10 to 1000 nM.
With `CN(C)CCCN(C)C(=O)C1CCN(c2c(F)cncc2NC(=O)c2c(N)nn3cc(F)cnc23)CC1` [I-G-16, 2-amino-N-(4-(4-((3-(dimethylamino)propyl)(methyl)carbamoyl)piperidin-1-yl)-5-fluoropyridin-3-yl)-6-fluoropyrazolo[1,5-a]pyrimidine-3-carboxamide], the Ki under setting [1] lay within 10 to 1000 nM.
On to `CN1CCC(C(=O)N2CC=C(c3c(F)cncc3NC(=O)c3c(N)nn4cc(F)cnc34)CC2)CC1` [I-C-38, 2-amino-6-fluoro-N-(5-fluoro-1′-(1-methylpiperidine-4-carbonyl)-1′,2′,3′,6′-tetrahydro-[4,4′-bipyridin]-3-yl)pyrazolo[1,5-a]pyrimidine-3-carboxamide], for which the Ki under setting [1] lay in the range of 10 to 1000 nM.
Turning to `Nc1nn2cc(Cl)cnc2c1C(=O)Nc1cnccc1OC1CCCNC1` (centres unmarked) [I-O-75, 2-amino-6-chloro-N-(4-(piperidin-3-yloxy)pyridin-3-yl)pyrazolo[1,5-a]pyrimidine-3-carboxamide], the Ki under setting [1] lay within 10 to 1000 nM.
With `Nc1nn2cc(F)cnc2c1C(=O)Nc1cnccc1N1CCN(C2COC2)C2CC21` (centres unmarked) [I-N-112, 2-amino-6-fluoro-N-(4-(5-(oxetan-3-yl)-2,5-diazabicyclo[4.1.0]heptan-2-yl)pyridin-3-yl)pyrazolo[1,5-a]pyrimidine-3-carboxamide], the Ki is 1000 to 5000 nM.
Consider `N#CCc1cnc2c(C(=O)Nc3cnccc3O[C@@H]3CCOC3)c(N)nn2c1` [I-O-31, (R)-2-amino-6-(cyanomethyl)-N-(4-((tetrahydrofuran-3-yl)oxy)pyridin-3-yl)pyrazolo[1,5-a]pyrimidine-3-carboxamide], for which, under setting [1], the Ki is under 10 nM.
As for `N#C[C@@H]1CCN(c2c(Cl)cncc2NC(=O)c2c(N)nn3cc(F)cnc23)C1` [I-N-285, (R)-2-amino-N-(5-chloro-4-(3-cyanopyrrolidin-1-yl)pyridin-3-yl)-6-fluoropyrazolo[1,5-a]pyrimidine-3-carboxamide], the Ki under setting [1] fell in the range of 10 to 1000 nM.
As to `Nc1nn2cc(F)cnc2c1C(=O)Nc1cncc(F)c1N1CCC(C(=O)N2CCC(N3CCCCC3)CC2)CC1` [I-G-60, N-(4-(4-([1,4′-bipiperidine]-1′-carbonyl)piperidin-1-yl)-5-fluoropyridin-3-yl)-2-amino-6-fluoropyrazolo[1,5-a]pyrimidine-3-carboxamide], the Ki under setting [1] was 10 to 1000 nM.
On the same count and under the same terms, then `CCOC1CN(C(=O)C2CCN(c3ccncc3NC(=O)c3c(N)nn4cc(F)cnc34)CC2)C1` [I-G-91, 2-amino-N-(4-(4-(3-ethoxyazetidine-1-carbonyl)piperidin-1-yl)pyridin-3-yl)-6-fluoropyrazolo[1,5-a]pyrimidine-3-carboxamide], with 10 to 1000 nM.
Consider `Cn1ccnc1-c1ccncc1NC(=O)c1c(N)nn2cc(F)cnc12` [I-C-55, 2-amino-6-fluoro-N-(4-(1-methyl-1H-imidazol-2-yl)pyridin-3-yl)pyrazolo[1,5-a]pyrimidine-3-carboxamide], for which the Ki under setting [1] lay within 10 to 1000 nM.
Regarding `CS(=O)(=O)C1CCCN(c2ccncc2NC(=O)c2c(N)nn3cc(F)cnc23)C1` (centres unmarked) [I-N-221, 2-amino-6-fluoro-N-(4-(3-(methylsulfonyl)piperidin-1-yl)pyridin-3-yl)pyrazolo[1,5-a]pyrimidine-3-carboxamide], the Ki under setting [1] was 10 to 1000 nM.
Same read-out and setting: then `N#CCc1cnc2c(C(=O)Nc3cnccc3N3CCCCCC3)c(N)nn2c1` [I-N-79, 2-amino-N-(4-(azepan-1-yl)pyridin-3-yl)-6-(cyanomethyl)pyrazolo[1,5-a]pyrimidine-3-carboxamide], with 10 to 1000 nM.
As for `N#CCc1cnc2c(C(=O)Nc3cnccc3N3CCCCC3)c(N)nn2c1` [I-N-84, 2-amino-6-(cyanomethyl)-N-(4-(piperidin-1-yl)pyridin-3-yl)pyrazolo[1,5-a]pyrimidine-3-carboxamide], under setting [1], the Ki was under 10 nM.
Consider `Nc1nn2cc(F)cnc2c1C(=O)Nc1cnccc1N1CCN2C(=O)COCC2C1` (centres unmarked) [I-N-136, 2-amino-6-fluoro-N-(4-(4-oxohexahydropyrazino[2,1-c][1,4]oxazin-8(1H)-yl)pyridin-3-yl)pyrazolo[1,5-a]pyrimidine-3-carboxamide], for which, under setting [1], the Ki was in the range of 10 to 1000 nM.
Turning to `CN1CCC[C@H]1C(=O)N1CCN(c2c(F)cncc2NC(=O)c2c(N)nn3cc(F)cnc23)CC1` [I-N-157, (S)-2-amino-6-fluoro-N-(5-fluoro-4-(4-(1-methylpyrrolidine-2-carbonyl)piperazin-1-yl)pyridin-3-yl)pyrazolo[1,5-a]pyrimidine-3-carboxamide], the Ki under setting [1] is 10 to 1000 nM.
On to `COc1cncc(NC(=O)c2c(N)nn3cc(F)cnc23)c1-c1cccnc1` [I-C-82, 2-amino-6-fluoro-N-(5′-methoxy-[3,4′-bipyridin]-3′-yl)pyrazolo[1,5-a]pyrimidine-3-carboxamide], for which, under setting [1], the Ki fell in the range of 10 to 1000 nM.
Turning to `Nc1nn2cc(F)cnc2c1C(=O)Nc1cncc(F)c1N1CCN(C(=O)C2CNC2)CC1` [I-N-168, 2-amino-N-(4-(4-(azetidine-3-carbonyl)piperazin-1-yl)-5-fluoropyridin-3-yl)-6-fluoropyrazolo[1,5-a]pyrimidine-3-carboxamide], the Ki under setting [1] was in the range of 10 to 1000 nM.
